Results taken from patent EP1123702A1, “ANALGESICS” (Eisai Co., Ltd., priority 1998, dated 2000).

Columns and labels:
5HT2 = 5HT2 (Homo sapiens, UniProt P28223); assay: Serotonin (5HT) receptor binding action (RBA; in vitro), 5HT2; conditions: method of JP98/01481 or JP-A 10-281752
writhing behavior = assay: Analgesic action by a writhing method using acetic acid; assay type: in vivo, Male mice of a ddY strain; conditions: sc; statistically minimum effective dose; 0.6% acetic acid ip 15 minutes after the drug, writhing counted for ten minutes; mice
[1] = Muscle relaxing action (in vivo); conditions: method of JP98/01481 or JP-A 10-281752
Text: There are also shown a serotonin (5HT) receptor binding action (RBA; in vitro) and a muscle relaxing action (in vivo) measured according to a method described in JP98/01481 or JP-A 10-281752. (In the table, "n.t." means "not tested").

5HT1A = target: T1, 5HT1A (Homo sapiens, UniProt P08908); assay: Serotonin (5HT) receptor binding action (RBA; in vitro), 5HT1A; conditions: method of JP98/01481 or JP-A 10-281752
T1 sequence (P08908 1-422): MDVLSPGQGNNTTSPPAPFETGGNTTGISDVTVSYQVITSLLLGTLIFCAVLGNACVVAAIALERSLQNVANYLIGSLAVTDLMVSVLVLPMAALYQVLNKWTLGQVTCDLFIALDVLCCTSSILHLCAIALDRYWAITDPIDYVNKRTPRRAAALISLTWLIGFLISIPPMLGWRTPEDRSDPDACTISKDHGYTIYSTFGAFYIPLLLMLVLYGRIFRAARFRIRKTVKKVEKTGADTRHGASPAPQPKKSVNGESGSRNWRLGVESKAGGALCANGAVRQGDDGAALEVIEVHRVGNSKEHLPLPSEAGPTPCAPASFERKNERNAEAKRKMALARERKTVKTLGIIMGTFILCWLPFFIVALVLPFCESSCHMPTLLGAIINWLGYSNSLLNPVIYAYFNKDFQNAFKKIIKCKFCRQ

Sequence of 5HT2 (P28223 whole entry, species assumed): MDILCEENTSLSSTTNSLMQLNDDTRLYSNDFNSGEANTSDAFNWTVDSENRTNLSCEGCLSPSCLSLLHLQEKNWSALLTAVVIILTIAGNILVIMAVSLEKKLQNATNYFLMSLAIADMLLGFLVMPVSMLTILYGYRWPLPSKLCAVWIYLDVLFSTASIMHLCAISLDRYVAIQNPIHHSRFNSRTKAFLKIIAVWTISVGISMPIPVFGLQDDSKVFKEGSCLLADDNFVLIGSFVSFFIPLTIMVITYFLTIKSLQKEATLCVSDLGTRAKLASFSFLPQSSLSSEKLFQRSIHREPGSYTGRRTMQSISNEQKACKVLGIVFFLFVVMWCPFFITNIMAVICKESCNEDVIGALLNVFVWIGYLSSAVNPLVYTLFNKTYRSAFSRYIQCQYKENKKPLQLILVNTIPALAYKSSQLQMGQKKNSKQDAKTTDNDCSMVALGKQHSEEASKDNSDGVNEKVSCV

Ki (5HT2) [nM]	Ki (5HT1A) [nM]	Compound	Analgesic Action (minimum effective dose) (writhing behavior) [mg/kg]	Muscle-Relaxing Action (ip) ([1]; ip) [mg/kg]	Muscle-Relaxing Action (po) [1] [mg/kg]
1.4	54.9	CCN1CCN(c2nc(-c3ccc(OCC(C)(C)O)cc3)cc3sccc23)CC1.Cl [(25), 4-(4-ethylpiperazin-1-yl)-6-[4-(2-hydroxy-2-methylpropoxy)phenyl]thieno[3,2-c]pyridine hydrochloride]	10	0.3	1
16.9	15	CCN1CCN(c2nc(-c3ccc(C(C)O)cc3)cc3sccc23)CC1.O=C(O)C(=O)O (stereo not drawn) [(26), 4-(4-ethylpiperazin-1-yl)-6-[4-(1-hydroxyethyl)phenyl]thieno[3,2-c]pyridine oxalate]	1		< 3
